In general, IC50 refers to the concentration needed to halve the response being measured. The low end stands for greater potency, the high end for weaker potency.

The target in one assay is Cbl-b (Homo sapiens (Human), UniProt Q13191). As to the kind of experiment: Cbl-b LCK Ub TR-FRET assay (Cbl-b Lck HTRF). The class given is biochemical. In outline:
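Biotin-Cbl-b preincubated with compound (10-point 3-fold series) 60 min, then His-LCK with 1 mM ATP (2× mixture) added for 90 min at room temperature. Ubiquitination detected by TR-FRET using HA-ubiquitin/UBE2D2 adduct, anti-HA-D2 and streptavidin-Eu; IC50 normalised to no-LCK and DMSO controls.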
A general note: Time-resolved FRET reads energy transfer from a long-lived donor to a nearby acceptor.

For another assay, the target named is c-Cbl (Homo sapiens (Human), UniProt P22681). The assay can be described thus: C-Cbl LCK Ub TR-FRET assay (c-cbl Lck HTRF). The class given is biochemical. Particulars: for (fold-selectivity): C-cbl Lck HTRF IC50 relative to Cbl-b Lck HTRF IC50. Put shortly: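 After the ubiquitination reaction, detection mixture was added and plates incubated 20 min at room temperature before reading. IC50 values were calculated with wells lacking LCK as the low control and DMSO as the high control.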
Sequence of c-Cbl (P22681 47-435): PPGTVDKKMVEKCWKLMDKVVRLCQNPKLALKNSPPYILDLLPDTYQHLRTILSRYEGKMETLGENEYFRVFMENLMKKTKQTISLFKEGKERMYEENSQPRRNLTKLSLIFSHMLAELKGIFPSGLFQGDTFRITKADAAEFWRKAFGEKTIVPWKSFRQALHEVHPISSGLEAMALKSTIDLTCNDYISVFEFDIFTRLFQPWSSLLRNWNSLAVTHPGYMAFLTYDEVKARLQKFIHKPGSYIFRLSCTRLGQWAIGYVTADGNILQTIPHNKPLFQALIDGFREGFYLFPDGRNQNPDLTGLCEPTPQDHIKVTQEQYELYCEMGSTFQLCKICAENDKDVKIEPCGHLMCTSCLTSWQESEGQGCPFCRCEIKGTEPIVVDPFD

Sequence of Cbl-b (Q13191 40-426): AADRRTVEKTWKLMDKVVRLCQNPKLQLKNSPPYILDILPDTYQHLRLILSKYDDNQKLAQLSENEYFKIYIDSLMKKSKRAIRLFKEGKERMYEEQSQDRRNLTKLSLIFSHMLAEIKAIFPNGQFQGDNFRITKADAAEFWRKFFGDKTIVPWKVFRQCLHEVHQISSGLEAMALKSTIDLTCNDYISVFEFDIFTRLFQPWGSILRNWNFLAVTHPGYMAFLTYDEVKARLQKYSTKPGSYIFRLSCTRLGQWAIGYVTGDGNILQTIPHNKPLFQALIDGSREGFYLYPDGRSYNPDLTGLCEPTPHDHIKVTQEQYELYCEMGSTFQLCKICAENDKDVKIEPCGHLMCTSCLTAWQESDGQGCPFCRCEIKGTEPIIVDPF

As to `CC[C@H]1CC[C@@H](c2cc3c(c(C(F)(F)F)c2)CN(c2cccc(C4(Cc5nncn5C)CC(F)(F)C4)c2)C3=O)N1` [Compound 475, 2-(3-(3,3-difluoro-1-((4-methyl-4H-1,2,4-triazol-3-yl)methyl)cyclobutyl)phenyl)-6-((2S,5S)-5-ethylpyrrolidin-2-yl)-4-(trifluoromethyl)isoindolin-1-one], the concentration for half-maximal inhibition (IC50) against Cbl-b stood at 54 nM. On c-Cbl, the IC50 was determined as 69 nM and the “(fold-selectivity)” value is “(1.3x)”.
In the same order, the values of `CC[C@@H]1CC[C@H](c2cc3c(c(C(F)(F)F)c2)CN(c2cccc(C4(Cc5nncn5C)CC(F)(F)C4)c2)C3=O)N1` [Compound 476, 2-(3-(3,3-difluoro-1-((4-methyl-4H-1,2,4-triazol-3-yl)methyl)cyclobutyl)phenyl)-6-((2R,5R)-5-ethylpyrrolidin-2-yl)-4-(trifluoromethyl)isoindolin-1-one] are 47 nM, 39 nM and “(0.83x)”.
For `Cn1cnnc1CC1(c2cc(NC3CCCC3)cc(N3Cc4c(cc(CNC5(C)CCC5)cc4C(F)(F)F)C3=O)c2)CC(F)(F)C1` [Compound 477, 2-(3-(cyclopentylamino)-5-(3,3-difluoro-1-((4-methyl-4H-1,2,4-triazol-3-yl)methyl)cyclobutyl)phenyl)-6-(((1-methylcyclobutyl)amino)methyl)-4-(trifluoromethyl)isoindolin-1-one] the same measures were 36 nM, 110 nM and “(3.4x)”.
In the case of `Cn1cnnc1CC1(c2cc(OC3CCCC3)cc(N3Cc4c(cc(CNC5(C)CCC5)cc4C(F)(F)F)C3=O)c2)CC(F)(F)C1` [Compound 478, 2-(3-(cyclopentyloxy)-5-(3,3-difluoro-1-((4-methyl-4H-1,2,4-triazol-3-yl)methyl)cyclobutyl)phenyl)-6-(((1-methylcyclobutyl)amino)methyl)-4-(trifluoromethyl)isoindolin-1-one], the IC50 against Cbl-b is 82 nM; on c-Cbl it was 160 nM. The “(fold-selectivity)” value on c-Cbl is recorded as “(2.0x)”.
In the same order, the values of `Cn1cnnc1CC1(c2cc(OC3CCCC3)cc(N3Cc4c(cc(CNC5(C)CCC5)cc4C(F)(F)F)C3=O)c2)COC1` [Compound 479, 2-(3-(cyclopentyloxy)-5-(3-((4-methyl-4H-1,2,4-triazol-3-yl)methyl)oxetan-3-yl)phenyl)-6-(((1-methylcyclobutyl)amino)methyl)-4-(trifluoromethyl)isoindolin-1-one] are 180 nM, 290 nM and “(1.6x)”.
In the same order, the values of `Cn1cnnc1CC1(c2cc(NC3CCCC3)cc(N3Cc4c(cc(CNC5(C)CCC5)cc4C(F)(F)F)C3=O)c2)COC1` [Compound 480, 2-(3-(cyclopentylamino)-5-(3-((4-methyl-4H-1,2,4-triazol-3-yl)methyl)oxetan-3-yl)phenyl)-6-(((1-methylcyclobutyl)amino)methyl)-4-(trifluoromethyl)isoindolin-1-one] are 59 nM, 180 nM and “(2.8x)”.
For `CC[C@H](C)Nc1cc(C2(Cc3nncn3C)COC2)cc(N2Cc3c(cccc3C(F)(F)F)C2=O)n1` [Compound 481, (S)-2-(6-(sec-butylamino)-4-(3-((4-methyl-4H-1,2,4-triazol-3-yl)methyl)oxetan-3-yl)pyridin-2-yl)-4-(trifluoromethyl)isoindolin-1-one] the same measures were 110 nM, 420 nM and “(3.7x)”.
As to `CC[C@@H](C)Nc1cc(C2(Cc3nncn3C)COC2)cc(N2Cc3c(cccc3C(F)(F)F)C2=O)n1` [Compound 482, (R)-2-(6-(sec-butylamino)-4-(3-((4-methyl-4H-1,2,4-triazol-3-yl)methyl)oxetan-3-yl)pyridin-2-yl)-4-(trifluoromethyl)isoindolin-1-one], the figures for the IC50 at Cbl-b and at c-Cbl were 210 nM and 410 nM, respectively. In addition, the “(fold-selectivity)” value at c-Cbl is “(1.9x)”.
In the same order, the values of `Cn1cnnc1CC1(c2cc(NC3CCC(F)(F)C3)nc(N3Cc4c(cccc4C(F)(F)F)C3=O)c2)COC1` (stereo not drawn) [Compound 483, 2-(6-((3,3-difluorocyclopentyl)amino)-4-(3-((4-methyl-4H-1,2,4-triazol-3-yl)methyl)oxetan-3-yl)pyridin-2-yl)-4-(trifluoromethyl)isoindolin-1-one] are 1800 nM, 20000 nM and “(12x)”.
In the case of `Cn1cnnc1CC1(c2cc(NC3CC=CC3)nc(N3Cc4c(cccc4C(F)(F)F)C3=O)c2)COC1` [Compound 484, 2-(6-(cyclopent-3-en-1-ylamino)-4-(3-((4-methyl-4H-1,2,4-triazol-3-yl)methyl)oxetan-3-yl)pyridin-2-yl)-4-(trifluoromethyl)isoindolin-1-one], the concentration for half-maximal inhibition (IC50) at Cbl-b is 230 nM. Further, at c-Cbl, it took 1200 nM to reach half-maximal inhibition (IC50) and the “(fold-selectivity)” value is on record as “(4.8x)”.
In the same order, the values of `CCn1cnnc1C(F)C1(c2cccc(N3Cc4c(cc(CN5CCN(C)C[C@@H]5C(C)C)cc4C(F)(F)F)C3=O)c2)CC(F)(F)C1` (stereo partly drawn) [Compound 485, 2-(3-(1-((4-ethyl-4H-1,2,4-triazol-3-yl)fluoromethyl)-3,3-difluorocyclobutyl)phenyl)-6-(((S)-2-isopropyl-4-methylpiperazin-1-yl)methyl)-4-(trifluoromethyl) isoindolin-1-one] are 31 nM, 29 nM and “(0.92x)”.
In the same order, the values of `CC(C)[C@H]1CN(C)CCN1Cc1cc2c(c(C(F)(F)F)c1)CN(c1cccc(C3([C@@H](F)c4nncn4C4CC4)COC3)c1)C2=O` [Compound 486, 2-(3-(3-((R)-(4-cyclopropyl-4H-1,2,4-triazol-3-yl)fluoromethyl)oxetan-3-yl)phenyl)-6-(((S)-2-isopropyl-4-methylpiperazin-1-yl)methyl)-4-(trifluoromethyl)isoindolin-1-one] are 77 nM, 93 nM and “(1.2x)”.
In the same order, the values of `CC(C)[C@H]1CN(C)CCN1Cc1cc2c(c(C(F)(F)F)c1)CN(c1cccc(C3([C@H](F)c4nncn4C4CC4)COC3)c1)C2=O` [Compound 487, 2-(3-(3-((S)-(4-cyclopropyl-4H-1,2,4-triazol-3-yl)fluoromethyl)oxetan-3-yl)phenyl)-6-(((S)-2-isopropyl-4-methylpiperazin-1-yl)methyl)-4-(trifluoromethyl)isoindolin-1-one] are 1800 nM, 2700 nM and “(1.5x)”.
Compound `Cn1cnnc1CC1(c2cc(NCCC(F)(F)F)nc(N3Cc4c(cccc4C(F)(F)F)C3=O)c2)COC1` [Compound 488, 2-(4-(3-((4-methyl-4H-1,2,4-triazol-3-yl)methyl)oxetan-3-yl)-6-((3,3,3-trifluoropropyl)amino)pyridin-2-yl)-4-(trifluoromethyl)isoindolin-1-one] registered a half-inhibitory concentration (IC50) against Cbl-b of 1900 nM. Besides, at c-Cbl, half-maximal inhibition (IC50) was put at 12500 nM and the “(fold-selectivity)” value is “(6.4x)”.
In the case of `Cn1cnnc1CC1(c2cc(NC3CCCC3O)nc(N3Cc4c(cccc4C(F)(F)F)C3=O)c2)COC1` (stereo not drawn) [Compound 489, 2-(6-((2-hydroxycyclopentyl)amino)-4-(3-((4-methyl-4H-1,2,4-triazol-3-yl)methyl)oxetan-3-yl)pyridin-2-yl)-4-(trifluoromethyl)isoindolin-1-one], the IC50 against Cbl-b was determined as 5000 nM; on c-Cbl it was 19500 nM. At c-Cbl, the “(fold-selectivity)” value is reported as “(3.8x)”.

The record behind these values is patent US20250230147A1, “LACTAMS AS CBL-B INHIBITORS” (Genentech, Inc., priority 2021, published 2025).
